The CheMixHub viscosity set
± gives the uncertainty stated by the source.

Experiment: xn = mol fraction of the nth substance listed

CCCBr + C1CCCCC1
308.15 K, 101 kPa
Conditions | viscosity [mPa·s]
x2 = 0.0957 | 0.4455 ± 0.0038
x2 = 0.1997 | 0.46 ± 0.0038
x2 = 0.2991 | 0.4715 ± 0.0038
x2 = 0.4983 | 0.516 ± 0.0039
x2 = 0.6052 | 0.5432 ± 0.004
x2 = 0.7135 | 0.5889 ± 0.0042
x2 = 0.801 | 0.6197 ± 0.0043
x2 = 0.9011 | 0.6872 ± 0.0047

CCCCCCCCNCCCCCCCC + C1CCCCC1
303.15 K, 101 kPa
Conditions | viscosity [mPa·s]
x2 = 0.1052 | 3.382 ± 0.068
x2 = 0.2021 | 3.137 ± 0.063
x2 = 0.3028 | 2.95 ± 0.059
x2 = 0.4044 | 2.591 ± 0.052
x2 = 0.5039 | 2.306 ± 0.046
x2 = 0.6016 | 1.976 ± 0.04
x2 = 0.7009 | 1.653 ± 0.033
x2 = 0.8006 | 1.364 ± 0.027
x2 = 0.9216 | 1.055 ± 0.021

CC(C)(C)O + C1COCCO1
298.15 K, 101 kPa
Conditions | viscosity [mPa·s]
x2 = 0.0878 | 2.941 ± 0.072
x2 = 0.1776 | 2.179 ± 0.05
x2 = 0.2717 | 1.773 ± 0.037
x2 = 0.3647 | 1.496 ± 0.029
x2 = 0.4695 | 1.304 ± 0.023
x2 = 0.571 | 1.197 ± 0.019
x2 = 0.6659 | 1.134 ± 0.016
x2 = 0.7778 | 1.114 ± 0.014
x2 = 0.791 | 1.111 ± 0.014
x2 = 0.8424 | 1.11 ± 0.013
x2 = 0.8786 | 1.118 ± 0.012

CC1OC(C)OC(C)O1 (configuration not stated) + CC1COC(=O)O1
viscosity [mPa·s], 101.3 kPa
Conditions | x1 = 0.091 | x1 = 0.2019 | x1 = 0.3007 | x1 = 0.4055 | x1 = 0.5011 | x1 = 0.6022 | x1 = 0.7006 | x1 = 0.8028 | x1 = 0.9028
293.15 K | 2.641 ± 0.043 | 2.499 ± 0.041 | 2.364 ± 0.039 | 2.215 ± 0.038 | 2.07 ± 0.036 | 1.91 ± 0.034 | 1.75 ± 0.031 | 1.577 ± 0.029 | 1.402 ± 0.026
298.15 K | – | – | – | – | – | – | – | 1.412 ± 0.026 | 1.26 ± 0.024
303.15 K | 2.161 ± 0.035 | 2.027 ± 0.033 | 1.907 ± 0.032 | 1.779 ± 0.03 | 1.661 ± 0.029 | 1.531 ± 0.027 | 1.402 ± 0.025 | 1.268 ± 0.023 | 1.134 ± 0.021
308.15 K | 1.969 ± 0.032 | 1.843 ± 0.031 | 1.732 ± 0.029 | 1.614 ± 0.028 | 1.505 ± 0.026 | 1.385 ± 0.025 | 1.267 ± 0.023 | 1.144 ± 0.021 | 1.024 ± 0.019

COCCOCCOCCO + CC1COC(=O)O1
298.15 K, 101.33 kPa
Conditions | viscosity [mPa·s]
x1 = 0.0048 | 2.514 ± 0.019
x1 = 0.015 | 2.563 ± 0.02
x1 = 0.0231 | 2.601 ± 0.02
x1 = 0.0338 | 2.645 ± 0.021
x1 = 0.0436 | 2.701 ± 0.021
x1 = 0.0626 | 2.807 ± 0.022
x1 = 0.0855 | 2.896 ± 0.023
x1 = 0.1268 | 3.064 ± 0.026
x1 = 0.1715 | 3.253 ± 0.028
x1 = 0.2173 | 3.462 ± 0.031
x1 = 0.2578 | 3.648 ± 0.034
x1 = 0.2932 | 3.814 ± 0.037
x1 = 0.3343 | 4.013 ± 0.04
x1 = 0.3636 | 4.167 ± 0.043
x1 = 0.406 | 4.368 ± 0.046
x1 = 0.445 | 4.559 ± 0.05
x1 = 0.4717 | 4.699 ± 0.052
x1 = 0.5024 | 4.844 ± 0.055
x1 = 0.5261 | 4.965 ± 0.058
x1 = 0.5629 | 5.143 ± 0.061
x1 = 0.6084 | 5.347 ± 0.066
x1 = 0.6548 | 5.581 ± 0.071
x1 = 0.6969 | 5.687 ± 0.074
x1 = 0.7326 | 5.831 ± 0.078
x1 = 0.7667 | 5.978 ± 0.082
x1 = 0.8023 | 6.05 ± 0.085
x1 = 0.8213 | 6.09 ± 0.086
x1 = 0.84 | 6.121 ± 0.088
x1 = 0.8547 | 6.173 ± 0.089
x1 = 0.88 | 6.194 ± 0.091
x1 = 0.8997 | 6.201 ± 0.092
x1 = 0.9173 | 6.208 ± 0.094

COCCOCCOCCOC + CC1COC(=O)O1
298.15 K, 101.33 kPa
Conditions | viscosity [mPa·s]
x1 = 0.0049 | 2.492 ± 0.019
x1 = 0.0113 | 2.496 ± 0.019
x1 = 0.0249 | 2.504 ± 0.019
x1 = 0.0352 | 2.516 ± 0.019
x1 = 0.0525 | 2.523 ± 0.019
x1 = 0.0833 | 2.536 ± 0.019
x1 = 0.1358 | 2.56 ± 0.019
x1 = 0.1928 | 2.568 ± 0.019
x1 = 0.2559 | 2.561 ± 0.019
x1 = 0.3083 | 2.543 ± 0.019
x1 = 0.3356 | 2.539 ± 0.019
x1 = 0.393 | 2.494 ± 0.019
x1 = 0.466 | 2.444 ± 0.019
x1 = 0.4902 | 2.428 ± 0.018
x1 = 0.5272 | 2.402 ± 0.018
x1 = 0.5728 | 2.361 ± 0.018
x1 = 0.6242 | 2.308 ± 0.018
x1 = 0.6786 | 2.254 ± 0.017
x1 = 0.7038 | 2.227 ± 0.017
x1 = 0.8165 | 2.127 ± 0.016
x1 = 0.8598 | 2.088 ± 0.016
x1 = 0.8959 | 2.047 ± 0.016
x1 = 0.9347 | 2.021 ± 0.015
x1 = 0.964 | 1.99 ± 0.015

CC(C)(C)O + CC#N
viscosity [mPa·s]
Conditions | 298.15 K | 303.15 K | 308.15 K | 313.15 K
101 kPa, x1 = 0.0566 | 0.3785 ± 0.0041 | 0.3701 ± 0.004 | 0.3589 ± 0.0039 | –
101 kPa, x1 = 0.1198 | 0.4021 ± 0.0043 | 0.3935 ± 0.0042 | 0.3794 ± 0.0041 | –
101 kPa, x1 = 0.1887 | 0.4346 ± 0.0046 | 0.4229 ± 0.0045 | 0.4056 ± 0.0043 | –
101 kPa, x1 = 0.2685 | 0.4818 ± 0.005 | 0.461 ± 0.0048 | 0.4406 ± 0.0046 | –
101 kPa, x1 = 0.3568 | 0.5555 ± 0.0056 | 0.5226 ± 0.0053 | 0.4902 ± 0.0051 | –
101 kPa, x1 = 0.4511 | 0.6735 ± 0.0067 | 0.6105 ± 0.0061 | 0.5659 ± 0.0057 | –
101 kPa, x1 = 0.5606 | 0.9097 ± 0.0087 | 0.8128 ± 0.0079 | 0.7495 ± 0.0073 | –
101 kPa, x1 = 0.6858 | 1.341 ± 0.012 | 1.18 ± 0.011 | 1.058 ± 0.01 | –
101 kPa, x1 = 0.831 | 2.213 ± 0.02 | 1.884 ± 0.017 | 1.63 ± 0.015 | –
101.3 kPa, x2 = 0.1675 | 1.925 ± 0.045 | 1.606 ± 0.038 | 1.359 ± 0.032 | 1.158 ± 0.028
101.3 kPa, x2 = 0.3117 | 1.187 ± 0.029 | 1.035 ± 0.026 | 0.909 ± 0.023 | 0.805 ± 0.021
101.3 kPa, x2 = 0.4368 | 0.863 ± 0.022 | 0.756 ± 0.02 | 0.68 ± 0.018 | 0.615 ± 0.016
101.3 kPa, x2 = 0.5471 | 0.66 ± 0.017 | 0.604 ± 0.016 | 0.553 ± 0.015 | 0.509 ± 0.014
101.3 kPa, x2 = 0.6446 | 0.552 ± 0.015 | 0.511 ± 0.014 | 0.474 ± 0.013 | 0.442 ± 0.013
101.3 kPa, x2 = 0.73 | 0.476 ± 0.013 | 0.446 ± 0.013 | 0.418 ± 0.012 | 0.394 ± 0.012
101.3 kPa, x2 = 0.8084 | 0.428 ± 0.012 | 0.404 ± 0.012 | 0.382 ± 0.011 | 0.362 ± 0.011
101.3 kPa, x2 = 0.8784 | 0.394 ± 0.012 | 0.375 ± 0.011 | 0.357 ± 0.011 | 0.34 ± 0.011
101.3 kPa, x2 = 0.9421 | 0.376 ± 0.011 | 0.359 ± 0.011 | 0.342 ± 0.011 | 0.33 ± 0.01

CCCCOC(=O)c1ccccc1 + CC#N
viscosity [mPa·s], 101.33 kPa
Conditions | x1 = 0.125 | x1 = 0.244 | x1 = 0.355 | x1 = 0.463 | x1 = 0.563 | x1 = 0.654 | x1 = 0.75 | x1 = 0.83 | x1 = 0.919
293.15 K | 0.446 ± 0.005 | 0.486 ± 0.005 | 0.533 ± 0.005 | 0.629 ± 0.006 | 0.762 ± 0.006 | 0.956 ± 0.007 | 1.173 ± 0.008 | 1.57 ± 0.01 | 2.131 ± 0.013
303.15 K | 0.402 ± 0.005 | 0.434 ± 0.005 | 0.472 ± 0.005 | 0.551 ± 0.005 | 0.655 ± 0.006 | 0.808 ± 0.006 | 0.979 ± 0.007 | 1.27 ± 0.008 | 1.69 ± 0.01
313.15 K | 0.364 ± 0.005 | 0.392 ± 0.005 | 0.424 ± 0.005 | 0.483 ± 0.005 | 0.567 ± 0.005 | 0.696 ± 0.006 | 0.825 ± 0.006 | 1.056 ± 0.007 | 1.368 ± 0.009
323.15 K | 0.313 ± 0.005 | 0.352 ± 0.005 | 0.382 ± 0.005 | 0.43 ± 0.005 | 0.461 ± 0.005 | 0.603 ± 0.006 | 0.667 ± 0.006 | 0.9 ± 0.007 | 1.119 ± 0.008
